Results as given in patent US20230226072A1 (priority 2020, published 2023).

System: Influenza A N1H1
Experiment: In vivo antiviral efficacy in Balb/c mice, lung virus titer by TCID50 assay
Details: methylene blue replaced by riboflavin; prophylactic and therapeutic application
Procedure: Mice received a daily MB-dose of 5 mg/kg based on a daily drinking volume of ˜5-6 ml and a body weight of 25-35 g. The control group received drinking water with saccharin but without methylene blue.
Mice were euthanized and lungs were removed on day 3 post challenge with influenza H1N1 virus. These tissue samples were stored at <−60° C. until they were transferred into homogenization tubes containing 1 ml cell medium supplemented with antibiotics. The lungs were homogenized two times at 5000 rpm for twenty seconds with 10 seconds pause between the intervals with a tissue homogenizer. The infectious H1N1 virus titer in homogenized lung samples was determined by a TCID50 assay performed by titration on Madin-Darby Canine Kidney (MDCK) cells as described above.

For `Cc1cc2nc3c(=O)[nH]c(=O)nc-3n(C[C@H](O)[C@H](O)[C@H](O)CO)c2cc1C` [riboflavin, 7,8-dimethyl-10-[(2S,3S,4R)-2,3,4,5-tetrahydroxypentyl]benzo[g]pteridine-2,4-dione], the “viricidal efficacy, lung virus titer (TCID50 assay), expected” value was “Analogous results are expected”.
